Here are results for 2 compounds from US20240287164A1, “ANTIBODIES SPECIFIC TO NELL2 AND METHODS OF USE” (BOARD OF REGENTS, THE UNIVERSITY OF TEXAS SYSTEM, priority 2021, published 2024).

“Also recorded” adds a separate entry of the source.

The subject of assay [1] is BAF complexes. Kind of assay: Actin in BAF complexes (immunoprecipitation, phalloidin dot blot and phalloidin pull-down). In kind it is cell-based. The following applies: A-673 cell nuclear extract. As for the experimental part: Immunoprecipitation. Immunoprecipitation was performed (Shiio, Y., and Eisenman, R. N. (2003) Histone sumoylation is associated with transcriptional repression. Proc Natl Acad Sci USA). The following antibodies were used: rabbit monoclonal anti-BRG1 (ab110641, Abcam), rabbit monoclonal anti-BAF57 (33360, Cell Signaling Technologies), and mouse monoclonal anti-FLAG M2 (F1804, MilliporeSigma).
Phalloidin dot blot assays. The BAF complexes were immuno-purified from nuclear extract using anti-BRG1 or anti-BAF57, (for endogenous BAF) or anti-FLAG antibody (for FLAG-BRG1-containing BAF) and were spotted onto a nitrocellulose membrane (sample amount normalized by cell number). The membrane was allowed to dry at room temperature for 30 minutes. The membrane was rinsed with TBST (150 mM NaCl, 20 mM Tris, pH7.4, 0.05% Tween-20), blocked with 5% BSA in TBST, and incubated with Biotin-XX Phalloidin (Biotium) either overnight at 4° C. or for two hours at room temperature followed by three washes with TBST. The membrane was incubated with High Sensitivity Streptavidin-HRP (21130, Pierce/Thermo Fisher) for one hour and was washed three times with TBST, followed by detection with ECL reagent.

Assay [2] has as its system BAF complexes. Put plainly: BAF subunit protein levels by immunoblotting in Ewing sarcoma cells. In kind it is cell-based, human. In general terms: Immunoblotting shows a protein as a band on a membrane.
From the text: Immunoblotting. […] The following antibodies were used: rabbit polyclonal anti-FLI1 (ab15289, Abcam); mouse monoclonal anti-FLAG M2 (F1804, MilliporeSigma): rabbit monoclonal anti-NELL2 (ab181376, Abcam); goat polyclonal anti-PGK1 (sc-17943, Santa Cruz Biotechnology); rabbit polyclonal anti-Robo3 (LS-C345713, LSBio); goat polyclonal anti-Robo3 (PA5-18714, Thermo Fisher Scientific); mouse monoclonal anti-cdc42 (ACD03, Cytoskeleton); rabbit polyclonal anti-Rac1/2/3 (2465, Cell Signaling Technologies); rabbit polyclonal anti-Rho A (2117, Cell Signaling Technologies); goat polyclonal anti-BRG1 (A303-877A, Bethyl Laboratories); rabbit monoclonal anti-BRG1 (49360, Cell Signaling Technologies); rabbit polyclonal anti-BRM (A301-014A-T, Bethyl Laboratories); mouse monoclonal anti-ARID1A/BAF250) (sc-32761, Santa Cruz Biotechnology); rabbit polyclonal anti-BAF170 (A301-039A-T, Bethyl Laboratories); rabbit monoclonal anti-BAF155 (11956, Cell Signaling Technologies); rabbit polyclonal anti-BAF60B (A301-596A-T, Bethyl Laboratories); rabbit polyclonal anti-BAF57 (A300-810A-T, Bethyl Laboratories); rabbit polyclonal anti-BAF53A (A301-391A-T, Bethyl Laboratories); rabbit monoclonal anti-BAF47 (8745, Cell Signaling Technologies); rabbit polyclonal anti-BRD9 (A303-781A-T, Bethyl Laboratories); rabbit monoclonal anti-SS18 (21792, Cell Signaling Technologies); rabbit monoclonal anti-CD133 (64326, Cell Signaling Technologies); rabbit polyclonal anti-srGAP1 (A301-286A-T, Bethyl Laboratories); rabbit polyclonal anti-srGAP2 (GTX130797, GeneTex); mouse monoclonal anti-tubulin (DMIA, Thermo Fisher Scientific); rabbit polyclonal anti-β-actin (4967, Cell Signaling Technologies); mouse monoclonal anti-Rpb1 (2629, Cell Signaling Technologies); rabbit monoclonal anti-cdc6 (3387, Cell Signaling Technologies); rabbit monoclonal anti-caveolin-1 (3267, Cell Signaling Technologies); rabbit polyclonal anti-phospho-caveolin-1 (3251, Cell Signaling Technologies); rabbit monoclonal anti-Src (2123, Cell Signaling Technologies); rabbit monoclonal anti-phospho-Src Family (6943, Cell Signaling Technologies); and rabbit polyclonal anti-GDF6 (NBP1-91934, Novus Biologicals). The following HRP-conjugated secondary antibodies were used: goat anti-rabbit (7074) and goat anti-mouse (7076) (Cell Signaling Technologies); donkey anti-goat (A50)-201P, Bethyl Laboratories).
The next assay deals with Rac. Ras, or Rab. The following applies: Surviladze et al. 2010; cited from earlier work.
The next assay deals with A-673 and EW8 cells. Kind of assay: Proliferation of NELL2- or Robo3-silenced Ewing sarcoma cells (IncuCyte). In kind it is cell-based, human. The following applies: 5 μM ML141; A-673 and EW8 cells; FIG. 3E. Here is the method: Transfection and viral infection. Calcium phosphate co-precipitation was used for transfection of 293T cells. Lentiviruses were prepared by transfection in 293T cells following System Biosciences' protocol, and the cells infected with lentiviruses were selected with 2 μg/mL puromycin for 48 hours. The target sequences for shRNAs are as follows: FLI1 C-terminus shRNA, […] (SEQ ID NO: 20); luciferase shRNA, […] (SEQ ID NO: 21); NELL2 shRNA-1, […] (SEQ ID NO: 22); and NELL2 shRNA-2, […] (SEQ ID NO: 23). The following siRNAs were used: human NELL2 siRNA SMARTpool (M-012185-00); Dharmacon), human Robo3 siRNA SMARTpool (M-026504-00; Dharmacon), human Robo3 siRNAs NM_022370 (SASI_Hs01_00099511, SASI_Hs01_00099512, SASI_Hs01_00099513, SASI_Hs01_00099514, SASI_Hs01_00099515 and SASI_Hs01_00099516; MilliporeSigma), human cdc42 siRNA SMARTpool (M-005057-01; Dharmacon), human CD133 siRNA SMARTpool (M-010630-01; Dharmacon), human srGAP1 siRNA SMARTpool (M-026974-00; Dharmacon), srGAP2 siRNA SMARTpool (M-021531-03; Dharmacon), human caveolin-1 siRNA SMARTpool (M-003467-01; Dharmacon), human GDF6 siRNA SMARTpool (M-0330055-01; Dharmacon), and Non-Targeting siRNA Pool #2 (D-0012Jun. 14, 2005; Dharmacon), siRNA transfection of cell lines was performed using Lipofectamine™ RNAiMAX Transfection Reagent (Thermo Fisher).
Cell proliferation and xenograft tumorigenicity assays. Anchorage-dependent cell proliferation was assessed by IncuCyte live-cell imaging system (Essen BioScience). The IncuCyte system monitors cell proliferation by analyzing the occupied area (% confluence) of cell images over time. At least four fields from four wells were assayed for each experimental condition. The cell seeding density was 2000 cells per well in a 96-well plate. […] Anchorage-independent cell proliferation was evaluated by soft agar colony formation assays. […] Colonies were grown for three weeks and counted. Colonies (>50 cells) were scored by randomly counting 10 fields per dish. […] Tumor growth was monitored weekly using a caliper. […]

In the next assay the test system is CD133^low population. Kind of assay: Proliferation of sorted CD133low population (IncuCyte). In kind it is cell-based, human. The following applies: CD133^low population treated with ML141. Here is the method: Cell proliferation and xenograft tumorigenicity assays. Anchorage-dependent cell proliferation was assessed by IncuCyte live-cell imaging system (Essen BioScience). The IncuCyte system monitors cell proliferation by analyzing the occupied area (% confluence) of cell images over time. At least four fields from four wells were assayed for each experimental condition. The cell seeding density was 2000 cells per well in a 96-well plate. For each assay, biological replicates were performed to confirm the reproducibility of results. Anchorage-independent cell proliferation was evaluated by soft agar colony formation assays. A-673 cells were infected with lentiviruses expressing shRNAs against NELL2 or scrambled shRNA and were selected with 2 μg/ml puromycin. Four days after infection, 4×10^3 cells were plated in soft agar. The soft agar cultures were composed of two layers; a base layer [4 ml in a 60-mm dish; DMEM/10% fetal bovine serum/0.6% noble agar (A5431, MilliporeSigma)/penicillin/streptomycin] and a cell layer (2 ml in a 60-mm dish; DMEM/10% fetal bovine serum/0.3% noble agar/penicillin/streptomycin). Colonies were grown for three weeks and counted. Colonies (>50 cells) were scored by randomly counting 10 fields per dish. Sphere formation assays were done (Dasgupta, A., et al. (2017) Oncotarget 8, 77292-77308) using ultra-low attachment 6-well plates (Corning: seeding density 1×10^4 cells/well) and DMEM/F-12 medium supplemented with B27, human recombinant epidermal growth factor (20 ng/ml), and basic fibroblast growth factor (20 ng/ml). For xenograft tumorigenicity assays, cells were subcutaneously injected into the flanks of SCID mice (2×10^6 cells/injection, five mice/group). Tumor growth was monitored weekly using a caliper. While it is not possible to predict the effect size, the sample size of five mice per group was chosen based on experience with xenograft experiments. Mice were randomly allocated to treatment groups. Blinding of the researcher measuring tumor size was employed.
Flow cytometry. […]

`C/C1=C\[C@H](C)C[C@H](C)OC(=O)C[C@H](c2ccc(O)cc2)NC(=O)[C@@H](Cc2c(Br)[nH]c3ccccc23)N(C)C(=O)[C@H](C)NC(=O)[C@@H](C)C1` [Jasplakinolide]: the “BRG1 and BRM pulled down by biotin-conjugated phalloidin” value in the assay on BAF complexes [1] was “more BRG1 and BRM are pulled down”.

As to ML141 [reference compound], in the assay on BAF complexes [2] (CD133^low population treated with ML141), the “BRG1, BAF155, and BAF47 protein levels in CD133low population” value was “increased BRG1, BAF155, and BAF47 protein levels”. Besides, the “Reduction of BRG1, BAF250A, BAF155, and BAF47 by NELL2 silencing, effect of cdc42 inhibitor” value in the assay with BAF complexes [2] (Ewing sarcoma cells, NELL2 silencing) is given as “abolished this response”. Also, the “Inhibition of Rac, Ras, or Rab” value in the assay with Rac. Ras, or Rab was “does not inhibit”. Also, the “Proliferation inhibition by NELL2 silencing or Robo3 silencing, effect of cdc42 inhibitor” value with A-673 and EW8 cells is reported as “abrogates the proliferation inhibition; also recorded: abolished”. The “Cell proliferation of CD133low population” value with CD133^low population was “increased cell proliferation”.
